Experimental data: patent US11014934B2, “Antiseptic drug” (AO “TATKHIMFARMPREPARATY”, priority 2017, dated 2021)
Like-named read-outs stand apart in the source and are kept apart here.

Experiments:
Format in all cases: cell-based
[1] = tested on: P.aeruginosa in the biofilm; assay: Antibacterial activity against cells immersed in a biofilm matrix (CFU, drop plate); settings: 24 hours
Experimental: To determine the effectiveness of the antibiotic against bacteria in […], bacteria were grown in Basal medium for 3 days at a temperature of 37° C. without swinging to obtain a dense biofilm [A. R Kayumov, Khakimullina E., Sharafutdinov I, Trizna E., Latypova L., Lien Thi, Margulis A., Bogachev M, Kurbangalieva A. Inhibition of biofilm formation in Bacillus subtilis by new halogenated furanoses. J. Antibiotics.—2014.—V. 68.—No 5.—P. 297-301.]. Then the biofilm was washed with a sterile 0.9% NaCl solution and fresh sterile medium was poured. Antiseptics were added to concentrations (1-16)×MBC (minimum bactericidal concentration) and incubated for 24 hours. Then the culture fluid was removed from the wells, washed once with 0.9% NaCl solution to remove non-adherent cells, and cell viability in biofilms was evaluated by counting CFU by Drop plate analysis [B. Herigstad, M Hamilton, J. Heersink How to optimize the drop plate method for enumerating bacteria. J Microbiol Methods.—2001.—V. 44.—P. 121-129]. To do this, the biofilm was mechanically removed from the surface and homogenized in 0.9% NaCl by pipetting and ultrasonic treatment. Then, serial 10-fold dilutions of the bacterial suspension in 0.9% NaCl were prepared, and 5 μI of each suspension were transferred to plates with dense nutrient medium. CFU was counted from drops containing 5-10 colonies.
The results of the study of antimicrobial activity against cells of the studied strains immersed in the biofilm matrix, in comparison with miramistin and benzalkonium chloride, are presented in FIGS. 1 and 2.

Stylonychia mytilus = assay: Antiprotozoal activity by death of protozoa; settings: for IC50: read-out: IC50 (95% confidence interval)
Experimental: Evaluation of the antiprotozoal activity of compound I was determined by the viability of the protozoa genus of hypotrichs Stylonychia mytilus in a nutrient medium in the presence of the studied substances. A mother liquor of compound I (10 mg/ml) was prepared in a mixture of DMSO and 96% ethanol (1:1). A 1% aqueous solution of DMSO and ethyl alcohol served as a negative control, and miramistin, benzalkonium chloride, and chlorhexidine were used as reference preparations. Then, from the mother liquors by repeated dilutions with water, working solutions were prepared corresponding to doses of 5; 10; 20; 25; 50; 75; 100 and 150 μg/ml. 10 μl of culture medium with protozoa and 10 μl of a solution of the test substance were applied to a chamber slide. The experiment was done in five replicates.
Slides were examined under a light microscope, antiprotozoal activity of substances (MIC and IC50) were determined by the death of protozoa. The Hill regression model with 5 parameters was used for the analysis.

Rh. Oryzae = assay: Sensitivity of microscopic fungi in solution (colonies after exposure)
Experimental: For the preparation of inoculum, were respectively used pure (2-5) days cultures of yeast and mycelial fungi, grown on Saburo's dense nutrient broth. Inoculum for plating was prepared in different ways, depending on the type of fungi. Thus, yeast crops (C. albicans) were prepared by washing the culture from an agar stroke. Cultures of mycelial fungi (Rh. oryzae, Asp. fumigatus) were pre-degraded in a pounder. A suspension of microorganisms was prepared in a sterile isotonic sodium chloride solution, bringing the inoculum density to 5 UNITS (GISK [State Research Institute of Standardization and Control] named after L. A. Tarasevich) or according to the McFarland standard 1 UNIT with a concentration of at least 1×10^6 CFU/ml, considering that the size of the fungal elements is approximately 10 times the size of bacteria (this provided the possibility of creating a mixture of biocide with suspension, the concentration of microorganisms of the order of 1×10^5 CFU/ml).
Solutions of compound I, miramistin, and benzalkonium chloride in working concentrations (0.1%, 0.2%, 0.3%) were poured into sterile 0.9 ml tubes. 0.1 ml of microbial suspension was added to test tubes with disinfectant solutions and mixed by shaking for several seconds. The exposition lasted for 1, 5, and 15 minutes. After required temporary exposure for action of the disinfectant, 0.5 ml of the neutralizer solution was added and mixed by shaking.
Then, 0.1 ml of the mixture was inoculated on a dense nutrient medium and the plates with inoculate were placed in a thermostat with a temperature of 27° C. for (2-4) days for yeast and (5-7) days for mycelial fungi, respectively.
After the time required for the cultivation of microorganisms of this species, the results were counted according to the number of colonies grown on the Petri dish. In the absence of growth, the time for culturing microorganisms was increased by a factor of 2. The grown colonies were subjected to microscopy.
The tested substances were studied on clinical and archival strains of yeast and mycelial fungi. As comparison drugs, drugs commonly used in clinical practice were used: miramistin and benzalconium chloride. After the required exposure time for action of the disinfectant, a series of 0.1 ml mixture was aseptically plated on the surface of a dense nutrient medium in Petri dishes. After the time of cultivation of microorganisms, the results were counted according to the number of colonies grown on the Petri dish.

[2] = death of protozoa, Hill regression

Compound: CCCCCCCCCCCC[N+](C)(C)Cc1cnc(C[N+](C)(C)CCCCCCCCCCCC)c2c1COC(CC)O2 (centres unmarked) [Compound I, 5,8-(Bis(methylene (N, N-dimethyl-N-dodecylammonium))-2-ethyl-4H-[1,3]dioxino [4,5-c]pyridiniumdichloride]
- excess of MBC giving a decrease in the number of CFU by 3 orders of magnitude [1]: 4-8 times
- IC50 (Stylonychia mytilus; [2]): 59 µg/mL
- MIC (Stylonychia mytilus; death of protozoa, read-out: MIC): 25 µg/mL
- Number of colonies grown in a Petri dish (Rh. Oryzae; exposure 1 min, 0.1% solution): 1

Compound: CCCCCCCCCCCCCC(=O)NCCC[N+](C)(C)Cc1ccccc1.O.[Cl-] [Miramistin, benzyldimethyl [3-(myristoylamino)propyl]-ammonium chloride monohydrate]
- excess of MBC giving a decrease in the number of CFU by 3 orders of magnitude [1]: 16 times
- MIC (Stylonychia mytilus): 50 µg/mL
- IC50 (Stylonychia mytilus): 92 µg/mL
- Number of colonies grown in a Petri dish (Rh. Oryzae; exposure 1 min, 0.1% solution): 12
- Number of colonies grown in a Petri dish (Rh. Oryzae; exposure 1 min, 0.2% solution): 2
- Number of colonies grown in a Petri dish (Rh. Oryzae; exposure 1 min, 0.3% solution): 1
- Number of colonies grown in a Petri dish (Rh. Oryzae; exposure 5 min, 0.1% solution): 10
- Number of colonies grown in a Petri dish (Rh. Oryzae; exposure 5 min, 0.2% solution): 4
- Number of colonies grown in a Petri dish (Rh. Oryzae; exposure 15 min, 0.1% solution): 2

Compound: alkyldimethyl(phenylmethyl) ammonium chloride [Benzalconium chloride]
- excess of MBC giving a decrease in the number of CFU by 3 orders of magnitude [1]: 16 times
- MIC (Stylonychia mytilus; death of protozoa): 30 µg/mL
- IC50 (95% confidence interval) (Stylonychia mytilus; [2]): 67 (66-69) μg/ml
- Number of colonies grown in a Petri dish (Rh. Oryzae; exposure 1 min, 0.1% solution): 1
